Test results reported in ChEMBL document CHEMBL4152293, “Synthesis and biological evaluation of podophyllotoxin derivatives as selective antitumor agents” (Eur J Med Chem, 2018).
Activity calls are given as the source filed them. The calls are words filed in the database; no cut-off is given here.

Legend:
MCF7 [1] = test: Potency index, ratio of doxorubicin IC50 to test compound IC50 for human MCF7 cells; format: functional
L02 [2] = test: Cytotoxicity against human L02 cells assessed as growth inhibition after 72 hrs by MTT assay; format: cell-based; settings: L02, 72 h
A549 [3] = test: Cytotoxicity against human A549 cells assessed as growth inhibition after 72 hrs by MTT assay; format: functional, cell-based; settings: A549, 72 h
MCF7 [4] = test: Cytotoxicity against human MCF7 cells assessed as growth inhibition after 72 hrs by MTT assay; format: functional, cell-based; settings: MCF7, 72 h
MCF7 [5] = test: Potency index, ratio of VP-16 IC50 to test compound IC50 for human MCF7 cells; format: functional
HepG2 [6] = test: Cytotoxicity against human HepG2 cells assessed as growth inhibition after 72 hrs by MTT assay; format: functional, cell-based; settings: HepG2, 72 h
A549 [7] = test: Potency index, ratio of VP-16 IC50 to test compound IC50 for human A549 cells; format: functional
A549 [8] = test: Potency index, ratio of doxorubicin IC50 to test compound IC50 for human A549 cells; format: functional
A549 [9] = test: Induction of morphological changes in human A549 cells assessed as irregular shape at 10 to 30 nM after 72 hrs by DAPI staining-based fluorescence microscopic method; format: functional, cell-based
A549 [10] = test: Induction of apoptosis in human A549 cells assessed as decrease in cell number at 10 to 30 nM after 72 hrs by DAPI staining-based fluorescence microscopic method; format: functional
L02 [11] = test: Induction of morphological changes in human L02 cells assessed as irregular shape at 10 to 30 nM after 72 hrs by DAPI staining-based fluorescence microscopic method; format: cell-based; settings: l02, 72 h, 0.03 µM
L02 [12] = test: Induction of apoptosis in human L02 cells assessed as decrease in cell number at 10 to 30 nM after 72 hrs by DAPI staining-based fluorescence microscopic method; settings: l02, 72 h, 0.03 µM
L02 [13] = test: Induction of apoptosis in human L02 cells assessed as nuclear fragmentation at 10 to 30 nM after 72 hrs by DAPI staining-based fluorescence microscopic method; format: cell-based; settings: l02, 72 h, 0.03 µM
A549 [14] = test: Induction of apoptosis in human A549 cells assessed as nuclear fragmentation at 10 to 30 nM after 72 hrs by DAPI staining-based fluorescence microscopic method; format: functional, cell-based
[15] = Selectivity index, ratio of IC50 for human L02 cells to IC50 for human A549 cells; format: toxicity; settings: L02 cells versus A549 cells, read-out: Ratio IC50
HepG2 [16] = test: Potency index, ratio of VP-16 IC50 to test compound IC50 for human HepG2 cells; format: functional
HepG2 [17] = test: Potency index, ratio of doxorubicin IC50 to test compound IC50 for human HepG2 cells; format: functional

Row | SMILES | IC50 (L02 [2]) [nM] | IC50 (A549 [3]) [nM] | IC50 (MCF7 [4]) [nM] | IC50 (HepG2 [6]) [nM] | other results
1 | COc1cc([C@@H]2c3cc4c(cc3[C@H](OC(=O)CN)[C@H]3COC(=O)[C@H]23)OCO4)cc(OC)c1OC | 14.5 | 12.9 | 7.2 | 17.5 | Ratio IC50 (MCF7 [1]): 10; Ratio IC50 (MCF7 [5]): 650
2 | CC[C@H](C)[C@H](NC(=O)OC(C)(C)C)C(=O)O[C@H]1c2cc3c(cc2[C@@H](c2cc(OC)c(OC)c(OC)c2)[C@H]2C(=O)OC[C@@H]21)OCO3 | 1120 | 223 | 626 | 690 | –
3 | COc1cc([C@@H]2c3cc4c(cc3[C@H](OC(=O)[C@@H]3CCCN3)[C@H]3COC(=O)[C@H]23)OCO4)cc(OC)c1OC | 6.2 | 2.8 | 7.6 | 12.8 | –
4 | COc1cc([C@@H]2c3cc4c(cc3[C@H](OC(=O)CN(C)C(=O)c3nc(C)c(C)nc3C)[C@H]3COC(=O)[C@H]23)OCO4)cc(OC)c1OC | 15.8 | 20.1 | 66.4 | 58.3 | –
5 | COc1cc([C@@H]2c3cc4c(cc3[C@H](OC(=O)CNC(=O)OC(C)(C)C)[C@H]3COC(=O)[C@H]23)OCO4)cc(OC)c1OC | 7.3 | 1.6 | 11.3 | 26.6 | Ratio IC50 (A549 [7]): 5900; Ratio IC50 (A549 [8]): 140
6 | COc1cc([C@@H]2c3cc4c(cc3[C@H](OC(=O)[C@H](Cc3ccccc3)NC(=O)c3nc(C)c(C)nc3C)[C@H]3COC(=O)[C@H]23)OCO4)cc(OC)c1OC | 12 | 8.1 | 11.3 | 24.5 | –
7 | COc1cc([C@@H]2c3cc4c(cc3[C@H](OC(=O)[C@@H](N)Cc3ccccc3)[C@H]3COC(=O)[C@H]23)OCO4)cc(OC)c1OC | 8.9 | 3.8 | 15.6 | 27.3 | –
8 | CNCC(=O)O[C@H]1c2cc3c(cc2[C@@H](c2cc(OC)c(OC)c(OC)c2)[C@H]2C(=O)OC[C@@H]21)OCO3 | 9.6 | 6.8 | 17.5 | 24.9 | Activity (A549 [9]): Active; Activity (A549 [10]): Active; Activity (L02 [11]): Toxic; Activity (L02 [12]): Toxic; Activity (L02 [13]): Toxic; Activity (A549 [14]): Active
9 | COc1cc([C@@H]2c3cc4c(cc3[C@@H](O[C@@H]3O[C@@H]5CO[C@@H](C)O[C@H]5[C@H](O)[C@H]3O)[C@H]3COC(=O)[C@H]23)OCO4)cc(OC)c1O [ETOPOSIDE] | 3480 | 9470 | 4720 | > 50000 | selectivity ratio [15]: 0.5
10 | COc1cc([C@@H]2c3cc4c(cc3[C@H](OC(=O)[C@@H]3CCCN3C(=O)c3nc(C)c(C)nc3C)[C@H]3COC(=O)[C@H]23)OCO4)cc(OC)c1OC | 132 | 80.1 | 122 | 112 | –
11 | COc1cc([C@@H]2c3cc4c(cc3[C@H](OC(=O)[C@H](CC(C)C)NC(=O)c3nc(C)c(C)nc3C)[C@H]3COC(=O)[C@H]23)OCO4)cc(OC)c1OC | 140 | 62.4 | 127 | 89.1 | –
12 | COc1cc([C@@H]2c3cc4c(cc3[C@H](OC(=O)[C@@H](N)CC(C)C)[C@H]3COC(=O)[C@H]23)OCO4)cc(OC)c1OC | 21.6 | 14.7 | 8.6 | 27.1 | –
13 | COc1cc([C@@H]2c3cc4c(cc3[C@H](OC(=O)[C@H](C)NC(=O)OC(C)(C)C)[C@H]3COC(=O)[C@H]23)OCO4)cc(OC)c1OC | 110 | 17.3 | 107 | 81.5 | –
14 | COc1cc([C@@H]2c3cc4c(cc3[C@H](OC(=O)[C@H](CC(C)C)NC(=O)OC(C)(C)C)[C@H]3COC(=O)[C@H]23)OCO4)cc(OC)c1OC | 180 | 130 | 110 | 106 | –
15 | COc1cccc2c1C(=O)c1c(O)c3c(c(O)c1C2=O)C[C@@](O)(C(=O)CO)C[C@@H]3O[C@H]1C[C@H](N)[C@H](O)[C@H](C)O1 [DOXORUBICIN] | 53.3 | 228 | – | – | –
16 | COc1cc([C@@H]2c3cc4c(cc3[C@H](OC(=O)CNC(=O)c3nc(C)c(C)nc3C)[C@H]3COC(=O)[C@H]23)OCO4)cc(OC)c1OC | 18.2 | 9.3 | 39.9 | 11.7 | Ratio IC50 (HepG2 [16]): 4200; Ratio IC50 (HepG2 [17]): 59
17 | COc1cc([C@@H]2c3cc4c(cc3[C@H](OC(=O)[C@H](C)N)[C@H]3COC(=O)[C@H]23)OCO4)cc(OC)c1OC | 10.8 | 13.6 | 18.5 | 17.8 | –
18 | CC[C@H](C)[C@H](NC(=O)c1nc(C)c(C)nc1C)C(=O)O[C@H]1c2cc3c(cc2[C@@H](c2cc(OC)c(OC)c(OC)c2)[C@H]2C(=O)OC[C@@H]21)OCO3 | 420 | 119 | 988 | 348 | –
19 | COc1cc([C@@H]2c3cc4c(cc3[C@H](OC(=O)[C@H](C)NC(=O)c3nc(C)c(C)nc3C)[C@H]3COC(=O)[C@H]23)OCO4)cc(OC)c1OC | 25.5 | 15.8 | 15.6 | 26.9 | –
20 | COc1cc([C@@H]2c3cc4c(cc3[C@H](OC(=O)c3nc(C)c(C)nc3C)[C@H]3COC(=O)[C@H]23)OCO4)cc(OC)c1OC | 115 | 76.9 | 63.5 | 57.8 | –
21 | COc1cc([C@@H]2c3cc4c(cc3[C@H](OC(=O)[C@H](Cc3ccccc3)NC(=O)OC(C)(C)C)[C@H]3COC(=O)[C@H]23)OCO4)cc(OC)c1OC | 78.4 | 30.2 | 95.3 | 87.1 | –
22 | COc1cc([C@@H]2c3cc4c(cc3[C@H](OC(=O)[C@@H]3CCCN3C(=O)OC(C)(C)C)[C@H]3COC(=O)[C@H]23)OCO4)cc(OC)c1OC | 396 | 148 | 277 | 246 | –
23 | CC[C@H](C)[C@H](N)C(=O)O[C@H]1c2cc3c(cc2[C@@H](c2cc(OC)c(OC)c(OC)c2)[C@H]2C(=O)OC[C@@H]21)OCO3 | 11.1 | 19.2 | 17.3 | 22.5 | –
